For orientation: logP means the decadic logarithm of the partition coefficient of the neutral form, usually between octanol and water. As usually defined, the inhibition is how much of the control response was suppressed. A high value points to a strong effect. As a reminder, the IC50 is the concentration that gives 50% inhibition. Low readings indicate greater potency, high ones weaker potency.

This passage reports logP, inhibition and IC50 results from ChEMBL document CHEMBL4359937, “Design, synthesis and evaluation of 2-amino-imidazol-4-one derivatives as potent β-site amyloid precursor protein cleaving enzyme 1 (BACE-1) inhibitors” (Bioorg Med Chem Lett, 2019).

Series [1] is described as follows: 1-Octanol/water distribution coefficient, logP of compound at 60 ug/ml shaken for 30 mins and measured by ultraviolet spectrophotometry analysis. It counts as physicochemical.
For series [2], the target named is T1, Beta-secretase 1 (Homo sapiens, UniProt P56817). As to the kind of experiment: Inhibition of human BACE1 (1 to 460 residues) expressed in baculovirus infected insect cells at 10 uM using Rh-EVNLDAEFK-quencher as substrate measured after 90 mins by FRET assay relative to control.
In series [3] the target is T1, Beta-secretase 1. As to the kind of experiment: Inhibition of human BACE1 (1 to 460 residues) expressed in baculovirus infected insect cells using Rh-EVNLDAEFK-quencher as substrate measured after 90 mins by FRET assay.

T1 sequence (P56817 whole entry, the tested form may be a part): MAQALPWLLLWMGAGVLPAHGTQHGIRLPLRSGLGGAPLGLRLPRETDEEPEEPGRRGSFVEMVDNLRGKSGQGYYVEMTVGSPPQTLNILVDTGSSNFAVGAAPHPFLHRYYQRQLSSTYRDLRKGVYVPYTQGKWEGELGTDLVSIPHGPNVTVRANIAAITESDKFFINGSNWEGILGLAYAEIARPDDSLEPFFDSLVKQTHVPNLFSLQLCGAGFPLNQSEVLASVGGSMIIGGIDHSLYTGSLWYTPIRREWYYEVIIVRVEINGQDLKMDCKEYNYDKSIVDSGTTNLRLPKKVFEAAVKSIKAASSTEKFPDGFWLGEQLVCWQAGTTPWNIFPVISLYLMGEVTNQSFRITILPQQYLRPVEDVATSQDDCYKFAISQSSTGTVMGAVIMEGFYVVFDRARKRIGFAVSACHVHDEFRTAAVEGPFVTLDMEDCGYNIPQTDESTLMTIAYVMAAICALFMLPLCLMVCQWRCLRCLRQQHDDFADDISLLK

In turn, `Cc1ccc(-c2cccc(C3(c4ccccc4)N=C(N)N(C)C3=O)c2)c(C)c1` (stereo unspecified) came in with a logP at 0.5 h in series [1] of 2.51. For the same compound, the inhibition against Beta-secretase 1 [2] is 40.9%. This compound came in with an IC50 against Beta-secretase 1 [3] greater than 10000 nM.
The compound `Cc1ccc(-c2cccc(C3(c4ccccc4)N=C(N)N(C)C3=O)c2)cc1C` (stereo unspecified) displayed a logP at 0.5 h in series [1] of 2.49. The compound further yielded an inhibition against Beta-secretase 1 [2] of 88.3%. Further, at Beta-secretase 1 [3], the IC50 turned out to be 425 nM.
In series [1], `COc1ccc(F)cc1-c1cccc(C2(c3ccccc3)N=C(N)N(C)C2=O)c1` (stereo unspecified) showed a logP at 0.5 h of 2.86. For the same compound, the inhibition on Beta-secretase 1 [2] came out at 96%. For the same compound, the midpoint of inhibition against Beta-secretase 1 [3], the IC50, lay at 173 nM.
In series [1], `Cc1cc(F)ccc1-c1cccc(C2(c3ccccc3)N=C(N)N(C)C2=O)c1` (stereo unspecified) yielded a logP at 0.5 h of 2.34. This compound also returned an inhibition against Beta-secretase 1 [2] of 87.7%. Also, the midpoint of inhibition at Beta-secretase 1 [3], the IC50, lay at 456 nM.
With `Cc1ccc(F)cc1-c1cccc(C2(c3ccccc3)N=C(N)N(C)C2=O)c1` (stereo unspecified), the logP at 0.5 h in series [1] came to 2.35. Also, on Beta-secretase 1 [2], the inhibition is 92%. In addition, 328 nM corresponded to half-maximal inhibition at Beta-secretase 1 [3] (IC50).
In series [1], `COc1ccc(-c2cccc(C3(c4ccccc4)N=C(N)N(C)C3=O)c2)c(OC)c1` (stereo unspecified) yielded a logP at 0.5 h of 2.46. The inhibition against Beta-secretase 1 [2] is 75.5%. The same compound displayed an IC50 on Beta-secretase 1 [3] of 1570 nM.
In series [1], `CCc1ccc(-c2cccc(C3(c4ccccc4)N=C(N)N(C)C3=O)c2)cc1` (stereo unspecified) yielded a logP at 0.5 h of 2.56. The compound further yielded an inhibition against Beta-secretase 1 [2] of 43.5%. This compound yielded an IC50 on Beta-secretase 1 [3] greater than 10000 nM.
For `CN1C(=O)C(c2ccccc2)(c2cccc(Br)c2)N=C1N` (stereo unspecified), in that order: 2.04, 33.1% and greater than 10000 nM.
The corresponding values for `CN1C(=O)C(c2ccccc2)(c2cccc(-c3ccc(C(C)(C)C)cc3)c2)N=C1N` (stereo unspecified) are 3.1, 34.2% and greater than 10000 nM.
For the compound `Cc1ccc(C)c(-c2cccc(C3(c4ccccc4)N=C(N)N(C)C3=O)c2)c1` (stereo unspecified), the logP at 0.5 h in series [1] turned out to be 2.52. Further, at Beta-secretase 1 [2], the inhibition was 42.1%. The IC50 against Beta-secretase 1 [3] is greater than 10000 nM.
As for `COc1cccc(OC)c1-c1cccc(C2(c3ccccc3)N=C(N)N(C)C2=O)c1` (stereo unspecified), the lipophilicity (logP) at 0.5 h in series [1] came to 2.02. The compound also displayed an inhibition against Beta-secretase 1 [2] of 82.1%. This compound also came in with an IC50 on Beta-secretase 1 [3] of 720 nM.
As to `Cc1ccc(-c2cccc(C3(c4ccccc4)N=C(N)N(C)C3=O)c2)c(F)c1` (stereo unspecified), the logP at 0.5 h in series [1] turned out to be 2.97. At Beta-secretase 1 [2], this compound displayed an inhibition of 97%. In addition, the IC50 on Beta-secretase 1 [3] turned out to be 141 nM.
In turn, `CN1C(=O)C(c2ccccc2)(c2cccc(-c3cccc(-c4ccccc4)c3)c2)N=C1N` (stereo unspecified) registered a logP at 0.5 h in series [1] of 3.14. On Beta-secretase 1 [2], this compound returned an inhibition of 20.5%. At Beta-secretase 1 [3], this compound displayed an IC50 greater than 10000 nM.
For `COc1cccc(-c2cccc(C3(c4ccccc4)N=C(N)N(C)C3=O)c2)c1OC` (stereo unspecified), the logP at 0.5 h in series [1] was found to be 2.15. This compound also returned an inhibition on Beta-secretase 1 [2] of 78.6%. Also, the IC50 on Beta-secretase 1 [3] came to 1110 nM.
The corresponding values for `COc1cccc(-c2cccc(C3(c4ccccc4)N=C(N)N(C)C3=O)c2)c1F` (stereo unspecified) are 2.72, 94.7% and 220 nM.
The corresponding values for `Cc1cc(C)c(-c2cccc(C3(c4ccccc4)N=C(N)N(C)C3=O)c2)c(C)c1` (stereo unspecified) are 2.55, 45.7% and greater than 10000 nM.
Take `Cc1cc(C)cc(-c2cccc(C3(c4ccccc4)N=C(N)N(C)C3=O)c2)c1` (stereo unspecified): in series [1], the log partition coefficient (logP) at 0.5 h is 2.56. In addition, at Beta-secretase 1 [2], the inhibition is 47.2%. Also, the IC50 against Beta-secretase 1 [3] was greater than 10000 nM.
As to `COc1ccc(OC)c(-c2cccc(C3(c4ccccc4)N=C(N)N(C)C3=O)c2)c1` (stereo unspecified), in series [1], the logP at 0.5 h stood at 2.54. Also, the inhibition on Beta-secretase 1 [2] was 95%. The compound further gave an IC50 against Beta-secretase 1 [3] of 195 nM.
Turning to `COc1ccc(-c2cccc(C3(c4ccccc4)N=C(N)N(C)C3=O)c2)cc1OC` (stereo unspecified), the logP at 0.5 h in series [1] was 2.49. This compound also had an inhibition against Beta-secretase 1 [2] of 97.5%. At Beta-secretase 1 [3], 119 nM corresponded to half-maximal inhibition (IC50).
`COc1cc(OC)cc(-c2cccc(C3(c4ccccc4)N=C(N)N(C)C3=O)c2)c1` (stereo unspecified): the logP at 0.5 h in series [1] was 2.41. The compound further displayed an inhibition against Beta-secretase 1 [2] of 80.7%. Also, on Beta-secretase 1 [3], the concentration for half-maximal inhibition (IC50) was found to be 851 nM.
For the compound `CN1C(=O)C(c2ccccc2)(c2ccccc2)N=C1N`, the logP at 0.5 h in series [1] was found to be 1.9. Also, the inhibition at Beta-secretase 1 [2] turned out to be 62.2%.
With `Cc1cccc(C)c1-c1cccc(C2(c3ccccc3)N=C(N)N(C)C2=O)c1` (stereo unspecified), the logP at 0.5 h in series [1] amounted to 2.42. The inhibition at Beta-secretase 1 [2] is 34.1%. In addition, the half-inhibitory concentration (IC50) at Beta-secretase 1 [3] was greater than 10000 nM.
In turn, `CN1C(=O)C(c2ccccc2)(c2cccc(-c3ccc(OCc4ccccc4)cc3)c2)N=C1N` (stereo unspecified) gave a logP at 0.5 h in series [1] of 2.99. Besides, the inhibition at Beta-secretase 1 [2] was 37.7%. This compound gave an IC50 on Beta-secretase 1 [3] greater than 10000 nM.
`CN1C(=O)C(c2ccccc2)(c2cccc(-c3ccc(-c4ccccc4)cc3)c2)N=C1N` (stereo unspecified) showed a log partition coefficient (logP) at 0.5 h in series [1] of 3.18. For the same compound, the inhibition against Beta-secretase 1 [2] stood at 43.9%. The half-inhibitory concentration (IC50) at Beta-secretase 1 [3] was greater than 10000 nM.
